Data published in US7893284B2 (Sterix Limited, priority 2004, dated 2011).

Experiments:
MCF-7 cells = experiment: Cell proliferation, microtiter plate assay (Cell Titer 96), MCF-7; format: cell-based; settings: Homo sapiens, MCF7; read-out: IC50 (μM) MCF-7 Breast Cancer Cells
Procedure: (§1) The effect of drugs on the proliferation of cells was measured using a microtiter plate assay (Cell Titer 96 proliferation assay, Promega, Hampshire, UK).

Tubulin = experiment: Inhibition of taxol-induced microtubule polymerization (turbidity at 350 nm); format: biochemical; settings: 20 μM, tubulin 1 mg/ml, FIG. 3
Procedure: The ability of drugs to inhibit taxol-induced polymerisation of tubulin was measured by turbidity at 350 nm. Tubulin (Cryoskeleton Inc., Denver, Colo.), at a final concentration of 1 mg/ml was incubated at 32° C. in G-PEM buffer [80 mM piperazine-N,N′-bis (2-ethane sulfonic acid) sequisodium salt, 1 mM MgCl2, 1 mM EGTA and 1 mM GTP (pH 6.8)] in the presence of taxol with or without estrone derivatives [20 μM].
STX641 is thought to act as an anti-microtubule agent, i.e. to disrupt microtubule function. To show this, tubulin was incubated in the presence of taxol (a compound known to promote tubulin polymerisation). Taxol induced efficient in vitro microtubule assembly as reflected in the increase in turbidity as measured at 350 nm.

[1] = tested on: A2780 Ovarian Cancer Cells; experiment: Cell cycle arrest and annexin V FACs analysis, A2780; format: cell-based; settings: 1 μM, FIG. 12
Excerpt: For controls, there is no cell surface expression as indicated by a lack of a peak in the M2 region.

[2] = tested on: PC3 Prostate Cancer Cells; experiment: PC3 cell number study with reversibility; format: cell-based; settings: 0.5 uM; for Cell Number Day 0: Day 0 (start); for Cell Number Day 0 (reversibility ®) / Cell Number Day 3 (reversibility ®) / Cell Number Day 6 (reversibility ®): drug removed on day 3; for Cell Number Day 6: Day 6, drug continued
Procedure: PC3 Prostate Cancer Cells; Three day study, cell number
STX 641® and STX 140® signify that the reversibility of the drug-induced effects of STX 641 and STX140 respectively were studied. For these studies the drug was removed on day 3, cells were washed with PBS, and then the culture medium was added.

[3] = tested on: PC3 Prostate Cancer Cells; experiment: Cell proliferation IC50, PC3; format: cell-based
Procedure: as §1

[4] = tested on: A2780 Ovarian Cancer Cells; experiment: Cell proliferation IC50, A2780; format: cell-based; settings: Homo sapiens
Procedure: as §1

[5] = tested on: Human Umbilical Vein Cells; experiment: 96 well plate MTS proliferation assay, Human Umbilical Vein Cells; format: cell-based; settings: read-out: mean inhibition of three wells +/-Sds
Excerpt: Human Umbilical Vein Cells; 96 well plate MTS proliferation assay, mean inhibition of three wells +/−Sds.

Human Dermal Fibroblasts = experiment: 96 well plate MTS proliferation assay, Human Dermal Fibroblasts; format: cell-based; settings: Fibroblast, read-out: mean inhibition of three wells +/-Sds
Excerpt: Human Dermal Fibroblasts; 96 well plate MTS proliferation assay, mean inhibition of three wells +/−Sds.

SMILES | IC50 (MCF-7 cells) [µM] | inhibition of taxol-induced polymerisation of tubulin (Tubulin) | G2/M arrest ([1]; 24 hours) | annexin V staining (apoptotic marker), FACs [1] | Cell Number Day 0 [2] | Cell Number Day 0 (reversibility ®) [2] | Cell Number Day 3 [2] | Cell Number Day 3 (reversibility ®) [2] | Cell Number Day 6 [2] | Cell Number Day 6 (reversibility ®) [2] | IC50 [3] [µM] | IC50 [4] [µM] | inhibition at 0.05 µM ([5]; 0.05 μM) [%] | inhibition at 0.1 µM ([5]; 0.10 μM) [%] | inhibition at 1 µM ([5]; 1.00 μM) [%] | inhibition at 5 µM ([5]; 5.00 μM) [%] | inhibition at 0.05 µM (Human Dermal Fibroblasts; 0.05 μM) [%] | inhibition at 0.1 µM (Human Dermal Fibroblasts; 0.10 μM) [%] | inhibition at 1 µM (Human Dermal Fibroblasts; 1.00 μM) [%] | inhibition at 5 µM (Human Dermal Fibroblasts; 5.00 μM) [%]
COc1cc2c(cc1OS(N)(=O)=O)CCC1C2CC[C@@]2(C)C1CC[C@@H]2CC#N (stereo in doubt) [Compound 33, Sulfamic acid 17-cyanomethyl-2-methoxy-13-methyl-7,8,9,11,12,13,14,15,16,17-decahydro-6H-cyclopenta[a]phenanthren-3-yl ester] | 0.15 | effectively blocked tubulin assembly | G2/M arrest | marked increase in staining | 168552.3 | 168552.3 | 117351 | 117351 | 84191.33 | 95845.33 | 0.05 | 0.09 |  |  |  |  |  |  |  | 
COc1cc2c(cc1OS(N)(=O)=O)CCC1C2CC[C@@]2(C)C1CC[C@@H]2OS(N)(=O)=O (some centres unmarked) [STX 140, reference compound] | 0.25 |  |  |  | 168552.3 | 168552.3 | 125218.67 | 125218.67 | 100059 | 197780 | 0.27 | 0.28 | 7 | 18 | 59 | 49 | 0 | 2 | 9 | 18
